Three compounds from patent US9133139B2, “Fluoroalkyl-1,4-benzodiazepinone compounds” (BRISTOL-MYERS SQUIBB COMPANY, priority 2012, dated 2015) can be followed below.

The test system of one data set is human Notch 1. The experiment in a line: Notch-CBF1 Transactivation Assay (luciferase reporter, transfected HeLa cells), Notch 1. The conditions noted are these: read-out: Notch 1 (IC50); HeLa cells transfected with truncated Notch 1 and CBF1 luciferase reporter, 18 hours incubation. The class given is cell-based. The source says:
(§1) Notch-CBF1 Transactivation Assay
(§2) The Notch-CBF1 (C-promoter binding factor I) cell based transactivation assay is based on the ability of the released Notch intracellular domain fragments (NICDs) to function as transcription factors in conjunction with CBF1 and other nuclear factors. Luciferase assays were used to measure the antagonism of Notch-CBF1 transcriptional activity. HeLa cervical cancer cells are transiently co-transfected with pCDNA3.1/Hygro plasmids containing truncated Notch 1, Notch 2, Notch 3, or Notch 4 receptors and a PGL3 luciferase reporter vector containing 4 copies of CBF1 binding site. The cells were then tested for Notch-CBF1 activity in the absence or presence of test compounds. HeLa cells, maintained in DMEM (high glucose with HEPES), 1× glutamine/penicillin/streptomycin and 10% Fetal Bovine serum, were transiently transfected in a T175 Flask (4.5×10^6 cells/flask) using the Monster Transfection Kit (Minis #MIR2906) according to manufacturers specifications. Table 2 denotes respective DNA quantity for the transfections.
(§3) Assay media (5 μL) containing test compounds in final concentrations ranging from 5 μM to 8.4×10^−5 μM (3 fold serial dilutions) were added to the cells and the cell plates were then incubated for 18 hours at 37° C. and 5% CO2. Control wells contained DMSO vehicle (total counts) or 0.5 μM of an in-house small molecule inhibitor (background counts). Duplicates were used for each sample. Luciferase activity was measured after a 20-minute incubation with 50 μl STEADY-GLO® luciferase reagents according to manufacturer's specifications (Promega, Cat. #E2550) and analyzed by Envision plate reader (PerkinElmer, Boston, Mass.).
(§4) The antagonist effect of compounds was expressed as 100×[1−(average sample−average background)/(average total−average background)] where sample is the luciferase activity in the presence of test compound, background is equal to the luciferase activity in the presence of the small molecule inhibitor control and the total is signal induced in DMSO wells.
On the technique in general: In a reporter assay the amount or activity of a reporter protein is the signal.

A short description of data set [1]: Human metabolic stability half-life assay (liver microsomes). Format: in vitro ADME. The settings on record: pH 7.4, human liver microsomes, CYP-mediated (NADPH-dependent), 0.5 μM compound, 45-minute time course, read-out: HLM (t1/2, min). How it is done:
Metabolic Stability Half-Life Panel
Result Interpretation Guideline
Incubation with Liver Microsomes
Sample Analysis—Instrumentation

For another data set, the system named is human Notch 3. The experiment in a line: Notch-CBF1 Transactivation Assay (luciferase reporter, transfected HeLa cells), Notch 3. The class given is cell-based. The conditions noted are these: read-out: Notch 3 (IC50); HeLa cells transfected with truncated Notch 3 and CBF1 luciferase reporter, 18 hours incubation.
Text: as §1, §2, §3, §4

Data set [2] can be described thus: High Throughput (HT) Metabolic Stability Panel, human microsomes. The class given is in vitro ADME. The conditions noted are these: ten-minute incubation, control compound expected values. How it is done: (§5) High Throughput (HT) Metabolic Stability Panel
(§6) Each compound was tested in duplicate.
(§7) Methods and Materials Incubation with Liver Microsomes
(§8) Peak integration was performed with the XCALIBUR® software.
(§9) A set of three compounds was tested along with the test compound in each assay plate.

Data set [3] in a line: High Throughput (HT) Metabolic Stability Panel, mouse microsomes. Format: in vitro ADME. The settings on record: ten-minute incubation, control compound expected values. How it is done:
as §5, §6, §7, §8, §9

Data set [4] in a line: High Throughput (HT) Metabolic Stability Panel, rat microsomes. The class given is in vitro ADME. The conditions noted are these: ten-minute incubation, control compound expected values. How it is done:
as §5, §6, §7, §8, §9

Data set [5] in a line: High Throughput (HT) Metabolic Stability Panel, dog microsomes. The class given is in vitro ADME. The conditions noted are these: ten-minute incubation, control compound expected values. How it is done: as §5, §6, §7, §8, §9
Data set [6] can be described thus: High Throughput (HT) Metabolic Stability Panel, monkey microsomes. Format: in vitro ADME. The conditions noted are these: ten-minute incubation, control compound expected values. How it is done: as §5, §6, §7, §8, §9

Where only a bound is given, the exact number is not on record here.

In general, IC50 refers to the midpoint of a concentration-inhibition curve. With `Cc1nocc1[C@H](C(N)=O)[C@@H](CCC(F)(F)F)C(=O)N[C@H]1N=C(c2ccccc2)c2ccccc2N(c2ccc(Cl)cn2)C1=O` [Example 23, (2R,3R)—N-((3S)-1-(5-Chloro-2-pyridinyl)-2-oxo-5-phenyl-2,3-dihydro-1H-1,4-benzodiazepin-3-yl)-3-(3-methyl-4-isoxazolyl)-2-(3,3,3-trifluoropropyl)succinamide], the IC50 in the data set on human Notch 1 was 15.4 nM; with human Notch 3, 13.7 nM. Further, the half-life at 0.5 μM in data set [1] is at least 30 min.

In the case of `Cc1cccc2c1NC(=O)[C@@H](NC(=O)[C@H](CCC(F)(F)F)[C@@H](C(N)=O)c1conc1C)N=C2c1ccc(F)cc1` [Example 33, (2R,3R)—N1-((S)-5-(4-Fluorophenyl)-9-methyl-2-oxo-2,3-dihydro-1H-benzo[e][1,4]diazepin-3-yl)-3-(3-methylisoxazol-4-yl)-2-(3,3,3-trifluoropropyl)succinamide], the IC50 in the data set on human Notch 1 is 19 nM; with human Notch 3 it was 11.5 nM. Also, the half-life at 0.5 μM in data set [1] was at least 30 min.

Regarding `CCc1nn(CCCN2CCN(c3cccc(Cl)c3)CC2)c(=O)n1CCOc1ccccc1` [Nefazodone], the “Average Percent Remaining ± SD, Human” value in data set [2] is 0.4 ± 0.4%. In addition, the “Average Percent Remaining ± SD, Mouse” value in data set [3] stood at 0.4 ± 0.3%. Besides, in data set [4], the “Average Percent Remaining ± SD, Rat” value was determined as 0.7 ± 0.6%. The “Average Percent Remaining ± SD, Dog” value in data set [5] came to 0.4 ± 0.4%. In addition, the “Average Percent Remaining ± SD, Monkey” value in data set [6] worked out at 0.6 ± 0.5%.
